Test results from patent US20220339135A1, “COMPOSITIONS AND METHODS FOR MODULATING AN INFLAMMATORY RESPONSE” (Enzychem Lifesciences Corporation, priority 2019, published 2022).
Entries after “also recorded” stand apart in the source; their conditions may differ.

Experiments:
[1] = system: Pseudomonas aeruginosa strain K (PAK) in bone marrow-derived macrophages (BMDMs); test: In vitro phagocytosis and bacterial killing assay, BMDMs; assay type: cell-based; conditions: for phagocytic activity of BMDMs (intracellular PAK CFU, confocal): 100 μg/ml pretreated 1 h, PAK MOI 50 for 1 h
Description: For immunofluorescence-based measurement of phagocytosis and clearance, BMDMs were grown on glass coverslips in 24-well plates. The cells were infected with PAK (MOI, 50) for different time intervals and then were treated with 10 μg/ml gentamycin for 30 minutes to remove extracellular PAK attached to the cell surface. The infected cells were washed with ice-cold PBS several times, followed by fixing for 10 minutes at room temperature in methanol or 10% paraformaldehyde. The cells were stained with anti-Pseudomonas antibody (Abcam) and then were incubated with goat anti-rabbit IgG secondary antibody conjugated with Alexa Fluor 488. Slides were mounted using the mounting medium ProLong™ Gold antifade reagent with the DNA-binding blue dye DAPI (Thermo Scientific™) and were imaged with a confocal microscope (Zeiss LSM 800, Germany).
For CFU counting-based phagocytosis and bacterial killing assay, PAK was cultured at 37° C. overnight with continuous shaking and was resuspended in PBS. The BMDMs or THP-1 cells were incubated with PAK (MOI, 50) for different time intervals at 37° C. The cells were further cultured in the medium containing 10 μg/ml gentamycin for 30 minutes and then were lysed by 0.5% SDS. The diluted aliquots were spread on LB agar plates, and CFU was counted after incubation of the plates overnight at 37° C.
To evaluate whether PLAG accelerates phagocytosis of PAK by macrophages in vitro systems, bone marrow-derived macrophages (BMDMs) were pretreated with PLAG, and then infected with PAK (MOI, 50) for different lengths of time. Gentamycin ([…]) was treated to the cells for 30 minutes to remove extracellular bacteria. Immunofluorescence micrographs of BMDMs incubated with PAK confirmed that PLAG accelerated not only engulfment of bacteria, but also clearance of bacteria (FIG. 5A). […] PAK is recognized by toll-like receptors 4 and 5 and PAK is phagocytosed by co-cultured macrophage at 2 hrs and sustained for 4 hrs. In the PLAG treated cells, phagocytosis of PAK starts at 30 min and maximized at 1 hr and the invading PAK is cleared at 2 hrs.
For the CFU counting-based phagocytosis assay, PAK was cultured at 37° C. overnight with continuous shaking and then resuspended in PBS. BMDMs were pretreated with 100 μg/ml of PLAG or PLH for 1 hour. The cells were infected with PAK (multiplicity of infection [MOI], 50) for 1 h, and then treated with 10 μg/ml gentamycin for 30 minutes to remove extracellular PAK attached to the cell surface. Then, the cells were lysed with 0.5% SDS and serially diluted in PBS to spread on LB agar plates. CFU counts were performed after overnight incubation at 37° C.
For the immunofluorescence-based measurement of phagocytosis and clearance, BMDMs were grown on glass coverslips in 24-well plates. The cells were infected with PAK (MOI, 50) for 1 hour and then treated with 10 μg/ml gentamycin for 30 minutes to remove extracellular PAK attached to the cell surface. The infected cells were washed several times with ice-cold PBS and then fixed for 10 minutes at room temperature in methanol or 10% paraformaldehyde. The cells were then incubated with anti-Pseudomonas primary and Alexa Fluor 488-conjugated goat anti-rabbit IgG secondary antibodies. The coverslips were mounted on slides with ProLong Gold antifade reagent with DAPI (Thermo Fisher Scientific) and imaged with a confocal microscope (LSM 800; Zeiss, Germany). […]

[2] = system: LPS-induced acute lung injury; test: LPS-induced acute lung injury (ALI) in mice; assay type: in vivo; conditions: for number of neutrophils in BALF: LPS-treated mice, co-treatment
[3] = PAK MOI 50, PLAG pretreated BMDMs

Question: Which “phagocytic activity of BMDMs (intracellular PAK CFU, confocal)” value [1] does the source give for CCCCC/C=C\C/C=C\CCCCCCCC(=O)OC(COC(C)=O)COC(=O)CCCCCCCCCCCCCCC (racemic) [PLAG, 1-palmitoyl-2-linoleoyl-3-acetylglycerol] here?
Answer: The value was “most advanced phagocytosis; also recorded: most effectively enhanced”.

Question: What about the “invading PAK is cleared” value [1, 3] of the same compound?
Answer: The value was 2 h.

Question: What about the “phagocytosis of PAK maximized” value [1, 3] of the same compound?
Answer: The value was 1 h.

Question: What about the “phagocytosis of PAK starts” value [1, 3] of the same compound?
Answer: The value was 30 min.

Question: And the “inflammatory cell infiltration into the alveolar space (H&E)” value ([2]; 16 hours after LPS, PLAG 250 mg/kg oral)?
Answer: Its value is “considerably reduced”.

Question: And the “mRNA expression of MIP-2, S100A8, S100A9 increased by LPS” value ([2]; BALF cells, 16 hours)?
Answer: The value was “significantly attenuated”.

Question: What about the “Evans blue-stained albumin in lungs” value ([2]; LPS 25 mg/kg intranasal, PLAG 250 mg/kg oral) of the same compound?
Answer: The value was “significantly decreased”.

Question: What about the “number of neutrophils in BALF” value [2] of the same compound?
Answer: Its value is “more rapidly return to homeostasis; also recorded: dramatically reduced”.

Question: And the “MPO activity of isolated lung tissue” value ([2]; vs LPS alone, PLAG 250 mg/kg oral)?
Answer: Its value is “significantly decreased”.

Question: And the “neutrophil migration, PLAG treatment alone” value ([2]; without LPS)?
Answer: The value was “no effect”.

Question: Which “phagocytic activity of BMDMs (intracellular PAK CFU, confocal)” value [1] does the source give for CCCCC/C=C\C/C=C\CCCCCCCC(=O)OC(CO)COC(=O)CCCCCCCCCCCCCCC (stereo not drawn) [PLH, palmitic linoleic hydroxyl glycerol, reference compound] here?
Answer: Its value is “little effect”.

Question: What about the “number of neutrophils in BALF” value [2] of the same compound?
Answer: Its value is “no effect”.
